Test results taken from patent publication US20120232162A1, “USE OF LUTEIN CONTAINING COMPOSITIONS TO IMPROVE CERTAIN ASPECTS OF MEMORY” (priority 2009, published 2012).
“Also recorded” adds a separate entry of the source.

Columns and labels:
mice [1] = assay: IntelliCage associative memory paradigm (negative reinforcement, stress); format: in vivo
Source text: (§1) The cognitive performance of mice treated with lutein and/or zeaxanthin was compared with that of vehicle-treated, age-matched controls in the IntelliCage®, a system which enables automated monitoring of spontaneous and learning behavior of mice in a homecage-like environment (NewBehavior AG, Zurich, Switzerland, www.newbehavior.com; Galsworthy et al. 2005, Behav Brain Res 157: 211-217; Onishchenko et al. 2007, Toxicol Sci 97: 428-437, Mechan et al., 2009, J. Neurosci. Methods, 180:43-51). Individual mice are recognized by sensors within the IntelliCage corners reading a transponder (reference identification tag) which is implanted into the scruff of the mouse's neck.
(§2) Each IntelliCage® is essentially a large cage (37.5×55×20.5 cm), into which is placed a metal frame, comprising four recording (operant) chambers. The recording chambers fit into the corners of the cage, each covering a 15×15×21 cm right-angled triangular area of floor space. In-cage antennae enable automatic monitoring of each individual mouse's corner visits; photo-beams within each corner enable automated recording of individual nosepokes and licks of the water bottle spouts. Four triangular mouse shelters are placed in the center of the cage, above which is situated a food hopper, enabling ad libitum access to food.
Each recording chamber comprises: (1) a plastic ring (30 mm inner diameter) which serves as an entrance into the chamber and houses the circular antenna which registers corner visits; (2) a grid floor, which the mice sit on once they have entered the chamber; (3) two circular openings (13 mm diameter) which enable access to water bottle spouts; each opening is crossed by photo-beams which register nose-pokes; (4) two motorized doors, which allow (door open) or prohibit (door closed) access to the water bottle spouts; (5) two water bottles; (6) tubing, through which air-puffs can be delivered as aversive stimulation; (7) different colored light diodes, which can be used for conditioning experiments (Mechan et al., 2009 J Neurosci Methods 180:43-51). […]

mice [2] = assay: IntelliCage side discrimination paradigm (attention, associative learning and memory); format: in vivo; settings: Lutein 9 mg/kg BW in feed, vs vehicle
Source text: as §1
Each IntelliCage® is essentially a large cage (37.5×55×20.5 cm), into which is placed a metal frame, comprising four recording (operant) chambers. The recording chambers fit into the corners of the cage, each covering a 15×15×21 cm right-angled triangular area of floor space. […]
This module was designed to test attention and associative memory. […] During this module the place errors (i.e. percentage of visits to incorrect corners) and side errors (i.e. percentage of nosepokes at the incorrect side of the correct corner) were recorded.

mice [3] = assay: IntelliCage place learning paradigm (spatial learning and memory); format: in vivo; settings: Lutein 9 mg/kg BW in feed, vs placebo-fed littermates
Source text: as §1
as §2, with “food. […]” for “food.”

[4] = lutein alone; chronic treatment (4 months); WO 2006/116755; cited from earlier work
[5] = tested on: primary culture of neurons; assay: glutamate neurotoxicity paradigm in primary neuron culture (neurofilament network / neurite length); format: cell-based; settings: lutein pre-treatment from day 5, 3 concentrations, n=6; 250 μM glutamate for 6 hours on day 12; glutamate control set as 100%; p<0.05 and <0.01
Source text: Glutamate is one of the principal excitatory amino acid in the central nervous system, and as such plays a crucial role in normal physiology. Perturbations in normal regulatory mechanisms of glutamate functions may lead to excessive, neurotoxic activation of glutamate receptors in the brain, which may be detrimental to learning and memory performance in the normal and aging brain. Using a primary culture of neurons, these conditions can be reproduced by glutamate intoxication. Impact on cultured neurons was indicated by morphological changes in the neurofilament cytoskeleton network of the neurons.
Neuroprotective effects of single compounds and combinations of compounds were evaluated by analyzing network density using labelling with an anti-neurofilament antibody (heavy chain 200 kD) specific to mature neuron neurites.
Riluzole (a pharmacological neuroprotective agent) and MK801 were used as inhibitory compounds counteracting neurotoxic effects of glutamate resulting in outgrowth of neurites. Inhibitory MK801 (complete blockage of NMDA-type glutamate receptors) was powerful and led to 100% recovery after intoxication.
Neuroprotective functions of lutein were tested using the schedule shown below:
On day 5, the culture medium was replaced by control culture medium or medium containing lutein (3 concentrations) within physiological range, n=6 per concentration). […]

[6] = second set of experiments, younger animals, intermediate lutein dose (of 8, 16 and 30 mg/kg/d), vs control group

CC1=C[C@H](O)CC(C)(C)[C@H]1/C=C/C(C)=C/C=C/C(C)=C/C=C/C=C(C)/C=C/C=C(C)/C=C/C1=C(C)C[C@@H](O)CC1(C)C [lutein]
learning and memorizing the correct place to access water under stressful conditions (air puff punishment) (mice [1]; Lutein 9 mg/kg BW in feed, vs vehicle-treated littermates): significantly better
performance in the associative memory task, place errors (mice [1]; [6]): significant improvement
performance in the associative memory task, side errors (mice [1]; [6]): significant improvement
side error rate (percentage of nosepokes at the incorrect side of the correct corner) (mice [2]; active phase): significantly lower
place error rate (percentage of visits to incorrect corners) (mice [2]; active phase (first 12 h)): higher level of attention and an improved memory performance; also recorded: significantly lower
using spatial cues to find and memorize the location of water (mice [3]): significant improvement; also recorded: significantly better
Verbal Fluency test [4]: significant improvement
other cognitive- or mood assessment-tests [4]: did not result in improvements
protection of neurons from excitotoxic glutamate neuro-toxicity (neurite length) [5]: significantly protected
